Reference: PubChem BioAssay AID1963983 (Molecular Pharmacology Branch, DTP, NCI, 2024)

System: 186277-243-T-J2-PDC multi-cell spheroid viability
Assay: Anticancer human tumor 186277-243-T-J2-PDC patient-derived colon adenocarcinoma cell line growth inhibition [PI3K]
Details: for IC50: curve of first compound; for viability, T/C: stronger effect = lower value
Source text: Combinatorial screen of targeted agents with the PI3K inhibitors inavolisib, alpelisib, duvelisib, and copanlisib in multi-cell type tumor spheroids
A high-throughput screen of multi-cell type tumor spheroids was designed to identify active combinations of targeted small molecules and PI3K pathway inhibitors. Complex spheroids include a stromal component modeled by human endothelial cells (HUVEC) and fibroblasts modeled by human mesenchymal stem cells (MSCs). The concentration ranges selected for each drug and investigational agent were based upon clinically achievable concentrations if the clinical Cmax of the agent was known.
Compounds. The drugs and investigational agents: inavolisib (NSC800729), alpelisib (NSC765974), duvelisib (NSC772469), copanlisib (NSC816437), ipatasertib (NSC767898), afuresertib (NSC778305), talazoparib (NSC767125), sapanisertib (NSC764658), selumetinib (NSC741078), tovorafenib (DAY101, NSC766906), vemurafenib (NSC761431), ravoxertinib (NSC781343), sotorasib (NSC818433), MRTX1133 (NSC 836407), abemaciclib (NSC 768073), palbociclib (NSC758247), venetoclax (NSC 766270), SY5609 (NSC837396), enzalutamide (NSC755605), and darolutamide (NSC825331), were obtained from the National Cancer Institute (NCI) Developmental Therapeutics Program Chemical Repository. The FDA-approved anticancer drug set is available from the NCI Developmental Therapeutics Program. […] The stock solutions were prepared in dimethyl sulfoxide (DMSO, Sigma-Aldrich, St. Louis, MO, cat. D2650) at 800-fold the tested concentration and stored at -70 degrees C prior to their use. All drugs and investigational agents were tested over a range starting from a high concentration at or near the clinical Cmax and decreasing in half-log increments. If the clinical Cmax for an agent had not been determined, the highest concentration tested was 10 microM.
Cell Culture. All cells were maintained in an incubator at 37 degrees C and 5% CO2 with 95% humidity. The PDC lines were cultured according to standard operating procedures established by the NCI PDMR (https://pdmr.cancer.gov/sops/default.htm). All PDCs were thawed and cultured in Matrigel-coated flasks prepared with a working solution of 1X Ham's F-12 nutrient mix, without supplementation (Invitrogen, Waltham, MA, cat. 11765054), 100 U/mL penicillin-streptomycin (Invitrogen, cat. 15140122), and 2.5% Matrigel (Corning Inc., Corning, NY, cat. 354248) for the first three passages. The 354836-022-R-J1-PDC, 475296-252-R-J1-PDC, and 997726-040-R-J2-PDC lines were cultured in 6A media, which includes advanced DMEM/F-12 (Thermo Fisher Scientific, cat. 12634028), 10 mM HEPES (Thermo Fisher Scientific, cat. 15630080), 1X GlutaMAX supplement (Thermo Fisher Scientific, cat. 35050061), 0.1 mg/mL primocin (InvivoGen, San Diego, CA, cat. ant-pm-2), 10% defined fetal bovine serum, heat inactivated (HyClone Laboratories Inc., Logan, UT, cat. SH30070.03HI), 50% L-WRN conditioned media (ATCC, cat. CRL-3276), 1.25 mM N-Acetyl-L-cysteine (Sigma-Aldrich, cat. A9165), 10 mM nicotinamide (Sigma-Aldrich, cat. N0636), 1X B-27 supplement (Thermo Fisher Scientific, cat. 17504044), 1X N-2 supplement (Thermo Fisher Scientific, cat. 17502048), and 10 microM Y-27632 dihydrochloride (Tocris Bioscience, Bristol, United Kingdom, cat. 1254). The 624824-186-R-J2-PDC line was cultured in 6C/Colon 1B media, which includes all 6A media components plus 50 ng/mL human EGF recombinant protein (Thermo Fisher Scientific, cat. PHG0311). […]
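Note: spheroids exposed to compounds for seven days before viability reading.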
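Throughout, for viability, T/C: 100% = DMSO vehicle control viability.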

In the case of `CC(C)NCC(C(=O)N1CCN(c2ncnc3c2C(C)CC3O)CC1)c1ccc(Cl)cc1` (configuration not stated) + CC(Nc1ccc2c(c1)OCCn1cc(N3C(=O)OCC3C(F)F)nc1-2)C(N)=O, the IC50 (second compound 0.00316 µM) is reported as 1120 nM, the IC50 (second compound 0.01 µM) is reported as 774 nM and the IC50 (second compound 0.0316 µM) is reported as 648 nM. For the same compound, the IC50 (second compound 0.1 µM) was 355 nM, the IC50 (second compound 0.316 µM) was 134 nM and the IC50 (second compound 1 µM) was less than 31.6 nM. It also gave a viability, T/C (second compound 0.00316 µM, first compound 0.0316 µM) of 92.9%, a viability, T/C (second compound 0.00316 µM, first compound 0.1 µM) of 77.1% and a viability, T/C (second compound 0.00316 µM, first compound 0.316 µM) of 64.1%. The viability, T/C (second compound 0.00316 µM, first compound 1 µM) was 52%, the viability, T/C (second compound 0.00316 µM, first compound 3.16 µM) was 39.6% and the viability, T/C (second compound 0.00316 µM, first compound 10 µM) was 21.4%. For the same compound, the viability, T/C (second compound 0.01 µM, first compound 0.0316 µM) was 95.3%, the viability, T/C (second compound 0.01 µM, first compound 0.1 µM) was 87.2% and the viability, T/C (second compound 0.01 µM, first compound 0.316 µM) was 62.2%. The viability, T/C (second compound 0.01 µM, first compound 1 µM) was 47%, the viability, T/C (second compound 0.01 µM, first compound 3.16 µM) was 29.8% and the viability, T/C (second compound 0.01 µM, first compound 10 µM) was 18.9%. The viability, T/C (second compound 0.0316 µM, first compound 0.0316 µM) was 104%, the viability, T/C (second compound 0.0316 µM, first compound 0.1 µM) was 97% and the viability, T/C (second compound 0.0316 µM, first compound 0.316 µM) was 71.4%. The viability, T/C (second compound 0.0316 µM, first compound 1 µM) was 37.1%, the viability, T/C (second compound 0.0316 µM, first compound 3.16 µM) was 19% and the viability, T/C (second compound 0.0316 µM, first compound 10 µM) was 15%. The viability, T/C (second compound 0.1 µM, first compound 0.0316 µM) was 100%, the viability, T/C (second compound 0.1 µM, first compound 0.1 µM) was 86.2% and the viability, T/C (second compound 0.1 µM, first compound 0.316 µM) was 51%. It also gave a viability, T/C (second compound 0.1 µM, first compound 1 µM) of 27.8%, a viability, T/C (second compound 0.1 µM, first compound 3.16 µM) of 17.1% and a viability, T/C (second compound 0.1 µM, first compound 10 µM) of 12.9%. The viability, T/C (second compound 0.316 µM, first compound 0.0316 µM) was 75.9%, the viability, T/C (second compound 0.316 µM, first compound 0.1 µM) was 53.6% and the viability, T/C (second compound 0.316 µM, first compound 0.316 µM) was 37.6%. The viability, T/C (second compound 0.316 µM, first compound 1 µM) was 24%, the viability, T/C (second compound 0.316 µM, first compound 3.16 µM) was 11.8% and the viability, T/C (second compound 0.316 µM, first compound 10 µM) was 8.85%. The viability, T/C (second compound 1 µM, first compound 0.0316 µM) was 40.1%, the viability, T/C (second compound 1 µM, first compound 0.1 µM) was 33.3% and the viability, T/C (second compound 1 µM, first compound 0.316 µM) was 24.5%. For the same compound, the viability, T/C (second compound 1 µM, first compound 1 µM) was 19.4%, the viability, T/C (second compound 1 µM, first compound 3.16 µM) was 17.1% and the viability, T/C (second compound 1 µM, first compound 10 µM) was 6.4%.
